In US10632171B2, “Melanocortin receptor-specific peptides” (Palatin Technologies, Inc., priority 2009, dated 2020):
Read-outs that look alike come from different tables or passages of the source. Peptide text beside a SMILES is read from it.

Assays:
[1] = Food intake and body weight change in rats; type: in vivo, rat; details: for food intake / rate of change in body weight: rat feeding study, 0.3 and 1 mg/kg; for decrease in food consumption compared to control: rats
Procedure: Change in food intake and body weight was evaluated for selected peptides administered by intravenous (IV) or subcutaneous injection routes. Male Sprague-Dawley rats were obtained from Hilltop Lab Animals, Inc. (Scottsdale, Pa.) or other vendors. Animals were individually housed in conventional polystyrene hanging cages and maintained on a controlled 12 hour on/off light cycle. Water and pelleted food was provided ad libitum. The rats were dosed IV with vehicle or selected peptides (0.3 to 1.0 mg/kg), or dosed subcutaneously with vehicle or selected peptides (doses up to 30 mg/kg). […] The changes in body weight and food intake for the 48 hour and 72 hour periods after dosing can also be measured to determine reversal of changes in body weight and food intake effects back to baseline levels.

hMC4-R = hMC4-R (Homo sapiens (Human), UniProt P32245); assay: Assay for agonist activity (cAMP accumulation in HEK-293 cells); type: cell-based; details: for Emax: HEK293; for functional classification at MC4-R: agonist = intrinsic activity 70% or higher, partial agonist 10-70%
Sequence of hMC4-R (P32245 whole entry): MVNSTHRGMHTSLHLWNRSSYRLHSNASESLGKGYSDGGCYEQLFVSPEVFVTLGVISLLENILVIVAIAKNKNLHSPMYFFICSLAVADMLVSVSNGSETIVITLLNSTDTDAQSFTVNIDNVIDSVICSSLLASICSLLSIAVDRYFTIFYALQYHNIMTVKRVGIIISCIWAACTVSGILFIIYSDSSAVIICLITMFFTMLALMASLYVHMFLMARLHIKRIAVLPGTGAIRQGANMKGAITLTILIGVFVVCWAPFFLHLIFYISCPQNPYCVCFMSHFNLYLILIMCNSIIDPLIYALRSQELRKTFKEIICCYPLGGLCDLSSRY
Procedure: Accumulation of intracellular cAMP was examined as a measure of the ability of the peptides of the present invention to elicit a functional response in HEK-293 cells that express MC4-R. Confluent HEK-293 cells that express recombinant hMC4-R were detached from culture plates by incubation in enzyme-free cell dissociation buffer. Dispersed cells were suspended in Earle's Balanced Salt Solution containing 10 mM HEPES (pH 7.5), 1 mM MgCl2, 1 mM glutamine, 0.5% albumin and 0.3 mM 3-isobutyl-1-methyl-xanthine (IBMX), a phosphodiesterase inhibitor. […] Cells were exposed for 15 minutes at 37° C. to peptides of the present invention dissolved in DMSO (final DMSO concentration of 1%) at a concentration range of 0.05-5000 nM in a total assay volume of 200 μL. […] Data analysis was performed by nonlinear regression analysis with Graph-Pad Prism® software. The maximum efficacies of the test peptides of the present invention were compared to that achieved by the reference melanocortin agonist NDP-αMSH.

[2] = Induction of penile erection in male rats; type: in vivo, rat
Procedure: The ability of peptides of the present invention to induce penile erection (PE) in male rats were evaluated with selected peptides. Male Sprague-Dawley rats weighing 250-300 g were kept on a 12 hour on/off light cycle with food and water ad libitum. All behavioral studies were performed between 9 a.m. and 4 p.m. […] Rats are observed for one hour, and the number of yawns, grooming bouts and PEs are recorded in 10-minute bins.

hMC1-R = hMC1-R (Homo sapiens (Human), UniProt Q01726); assay: Functional assay for agonist activity at hMC1-R; type: cell-based; details: intrinsic activity
Sequence of hMC1-R (Q01726 whole entry): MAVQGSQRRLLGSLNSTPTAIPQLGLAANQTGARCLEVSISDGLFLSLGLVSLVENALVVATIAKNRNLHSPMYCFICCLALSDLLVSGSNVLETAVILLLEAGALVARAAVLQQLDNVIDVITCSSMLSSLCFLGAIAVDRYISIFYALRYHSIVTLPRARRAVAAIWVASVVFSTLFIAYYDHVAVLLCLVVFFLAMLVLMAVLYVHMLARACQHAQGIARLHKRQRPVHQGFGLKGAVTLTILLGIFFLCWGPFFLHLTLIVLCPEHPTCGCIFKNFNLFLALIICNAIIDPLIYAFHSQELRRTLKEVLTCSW

[3] = 1 mg/kg, 0-2, 0-4 and 0-20 hour periods
[4] = NDP-α-MSH is 100%, read-out: intrinsic activity at MC4-R
[5] = intrinsic activity, read-out: hMC4-R Emax (%)

SMILES	Emax (hMC4-R; [4]) [%]	functional classification at MC4-R (hMC4-R)	Emax (hMC1-R) [%]	Emax (hMC4-R; [5]) [%]	also measured
CC(=O)N[C@@H](CCCNC(=N)N)C(=O)N[C@H]1CC(=O)NCCCC[C@@H](C(N)=O)NC(=O)[C@H](Cc2c[nH]c3ccccc23)NC(=O)[C@H](CCCNC(=N)N)NC(=O)[C@@H](Cc2ccccc2)NC(=O)[C@H](Cc2c[nH]cn2)NC1=O [Peptide No. 1, Ac-Arg-cyclo(Asp-His- D-Phe-Arg-Trp-Lys)- NH2]	91	agonist			food intake [1]: reduce food intake; rate of change in body weight [1]: decrease the rate of change in body weight; decrease in food consumption compared to control ([1]; 0.3 mg/kg, 0-2, 0-4 and 0-20 hour periods): statistically significant; decrease in food consumption compared to control [1, 3]: statistically significant; observed spontaneous erections compared to vehicle ([2]; IV, 0.3 or 1 mg/kg): statistically significant increase
CC(=O)N[C@@H](CCCNC(=N)N)C(=O)N[C@H]1CC(=O)NCCCC[C@@H](C(N)=O)NC(=O)[C@H](Cc2c[nH]c3ccccc23)NC(=O)[C@H](CCCNC(=N)N)NC(=O)[C@@H](Cc2ccccc2)NC(=O)[C@H](C(C)C)NC1=O [Peptide No. 16, Ac-Arg-cyclo(Asp-Val- D-Phe-Arg-Trp-Lys)- NH2]	42	partial agonist			food intake [1]: reduce food intake; rate of change in body weight [1]: decrease the rate of change in body weight; decrease in food consumption compared to control ([1]; 0.3 mg/kg, 0-2 and 0-4 hour periods): statistically significant; decrease in food consumption compared to control [1, 3]: statistically significant
CC(=O)N[C@@H](CCCNC(=N)N)C(=O)N[C@H]1CC(=O)NCCCC[C@@H](C(N)=O)NC(=O)[C@H](Cc2c[nH]c3ccccc23)NC(=O)[C@H](CCCNC(=N)N)NC(=O)[C@@H](Cc2ccccc2)NC(=O)[C@H](CCC(N)=O)NC1=O [Peptide No. 32, Ac-Arg-cyclo(Asp-Gln- D-Phe-Arg-Trp-Lys)- NH2]	98	agonist			observed spontaneous erections ([2]; subcutaneous, 1, 3 or 10 mg/kg): increase in observed spontaneous erections
CC(=O)N[C@H](CCCNC(=N)N)C(=O)N[C@H]1CC(=O)NCCCC[C@@H](C(N)=O)NC(=O)[C@H](Cc2c[nH]c3ccccc23)NC(=O)[C@H](CCCNC(=N)N)NC(=O)[C@@H](Cc2ccccc2)NC(=O)[C@H](CCC(N)=O)NC1=O [compound 71, Ac-D-Arg-cyclo(Asp- Gln-D-Phe-Arg-Trp- Lys)-NH2]			88	89	
CC(=O)N[C@@H](CCCNC(=N)N)C(=O)N[C@H]1CCCC(=O)NCC[C@@H](C(N)=O)NC(=O)[C@H](Cc2c[nH]c3ccccc23)NC(=O)[C@H](CCCNC(=N)N)NC(=O)[C@@H](Cc2ccccc2)NC(=O)[C@H](Cc2c[nH]cn2)NC1=O [compound 126, Ac-Arg-cyclo(hGlu-His- D-Phe-Arg-Trp-Dab)- NH2]	101	agonist			
CC(=O)N[C@@H](CCCNC(=N)N)C(=O)N[C@H]1CCCC(=O)NCC[C@@H](C(N)=O)NC(=O)[C@H](Cc2c[nH]c3ccccc23)NC(=O)[C@H](CCCNC(=N)N)NC(=O)[C@@H](Cc2ccccc2)NC(=O)[C@H](CCN)NC1=O [compound 127, Ac-Arg-cyclo(hGlu-Dab- D-Phe-Arg-Trp-Dab)- NH2]	98	agonist			
CC(=O)N[C@@H](CCCNC(=N)N)C(=O)N[C@H]1CCNC(=O)CCC[C@@H](C(N)=O)NC(=O)[C@H](Cc2c[nH]c3ccccc23)NC(=O)[C@H](CCCNC(=N)N)NC(=O)[C@@H](Cc2ccccc2)NC(=O)[C@H](Cc2c[nH]cn2)NC1=O [compound 128, Ac-Arg-cyclo(Dab-His- D-Phe-Arg-Trp-hGlu)- NH2]	95	agonist			
CC(=O)N[C@@H](CCCNC(=N)N)C(=O)N[C@H]1CCNC(=O)CCC[C@@H](C(N)=O)NC(=O)[C@H](Cc2c[nH]c3ccccc23)NC(=O)[C@H](CCCNC(=N)N)NC(=O)[C@@H](Cc2ccccc2)NC(=O)[C@H](CCN)NC1=O [compound 129, Ac-Arg-cyclo(Dab-Dab- D-Phe-Arg-Trp-hGlu)- NH2]	96	agonist			
CC(=O)N[C@@H](CCCNC(=N)N)C(=O)N[C@H]1CCCNC(=O)CC[C@@H](C(N)=O)NC(=O)[C@H](Cc2c[nH]c3ccccc23)NC(=O)[C@H](CCCNC(=N)N)NC(=O)[C@@H](Cc2ccccc2)NC(=O)[C@H](CCC(N)=O)NC1=O [compound 150, Ac-Arg-cyclo(Orn-Gln- D-Phe-Arg-Trp-Glu)- NH2]			89		
CC(=O)N[C@H](CCCNC(=N)N)C(=O)N[C@H]1CCCNC(=O)CC[C@@H](C(N)=O)NC(=O)[C@H](Cc2c[nH]c3ccccc23)NC(=O)[C@H](CCCNC(=N)N)NC(=O)[C@@H](Cc2ccccc2)NC(=O)[C@H](CCC(N)=O)NC1=O [compound 152, Ac-D-Arg-cyclo(Orn- Gln-D-Phe-Arg-Trp- Glu)-NH2]			85	89	
CC(=O)N[C@@H](CCCNC(=N)N)C(=O)N[C@H]1CCCNC(=O)CC[C@@H](C(N)=O)NC(=O)[C@H](Cc2c[nH]c3ccccc23)NC(=O)[C@H](CCCNC(=N)N)NC(=O)[C@@H](Cc2ccccc2)NC(=O)[C@H](CC(N)=O)NC1=O [compound 154, Ac-Arg-cyclo(Orn-Asn- D-Phe-Arg-Trp-Glu)- NH2]			87		
CC(=O)N[C@@H](CCCNC(=N)N)C(=O)N[C@H]1CCCCNC(=O)C[C@@H](C(N)=O)NC(=O)[C@H](Cc2c[nH]c3ccccc23)NC(=O)[C@H](CCCNC(=N)N)NC(=O)[C@@H](Cc2ccccc2)NC(=O)[C@H](CC(N)=O)NC1=O [compound 155, Ac-Arg-cyclo(Lys-Asn- D-Phe-Arg-Trp-Asp)- NH2] (HELM PEPTIDE1{[ac].R.K.N.[dF].R.W.D.[am]}$PEPTIDE1,PEPTIDE1,3:R3-8:R3$$$V2.0)			91	97	
CC(=O)N[C@H](CCCNC(=N)N)C(=O)N[C@H]1CCCNC(=O)CC[C@@H](C(N)=O)NC(=O)[C@H](Cc2c[nH]c3ccccc23)NC(=O)[C@H](CCCNC(=N)N)NC(=O)[C@@H](Cc2ccccc2)NC(=O)[C@H](CC(N)=O)NC1=O [compound 156, Ac-D-Arg-cyclo(Orn- Asn-D-Phe-Arg-Trp- Glu)-NH2]			81		
CC(=O)N[C@@H](CCCNC(=N)N)C(=O)N[C@H]1CCNC(=O)CCC[C@@H](C(N)=O)NC(=O)[C@H](Cc2c[nH]c3ccccc23)NC(=O)[C@H](CCCNC(=N)N)NC(=O)[C@@H](Cc2ccccc2)NC(=O)[C@H](CCC(N)=O)NC1=O [compound 159, Ac-Arg-cyclo(Dab-Gln- D-Phe-Arg-Trp-hGlu)- NH2]			98	99	
CC(=O)N[C@@H](CCCNC(=N)N)C(=O)N[C@H]1CCCC(=O)NCC[C@@H](C(N)=O)NC(=O)[C@H](Cc2c[nH]c3ccccc23)NC(=O)[C@H](CCCNC(=N)N)NC(=O)[C@@H](Cc2ccccc2)NC(=O)[C@H](CC(N)=O)NC1=O [compound 160, Ac-Arg-cyclo(hGlu-Asn- D-Phe-Arg-Trp-Dab)- NH2] (HELM PEPTIDE1{[ac].R.[O=C([C@H](CCCC(=O)[*:3])N[*:1])[*:2]].N.[dF].R.W.[Dab].[am]}$PEPTIDE1,PEPTIDE1,3:R3-8:R3$$$V2.0)			95	98	
CC(=O)N[C@@H](CCCNC(=N)N)C(=O)N[C@H]1CCC(=O)NCCC[C@@H](C(N)=O)NC(=O)[C@H](Cc2c[nH]c3ccccc23)NC(=O)[C@H](CCCNC(=N)N)NC(=O)[C@@H](Cc2ccccc2)NC(=O)[C@H](CC(N)=O)NC1=O [compound 161, Ac-Arg-cyclo/(Glu-Asn- D-Phe-Arg-Trp-Orn)- NH2]			85	91	
CC(=O)N[C@@H](CCCNC(=N)N)C(=O)N[C@H]1CCCCNC(=O)C[C@@H](C(N)=O)NC(=O)[C@H](Cc2ccc3ccccc3c2)NC(=O)[C@H](CCCNC(=N)N)NC(=O)[C@@H](Cc2ccccc2)NC(=O)[C@H](CC(N)=O)NC1=O [compound 162, Ac-Arg-cyclo(Lys-Asn- D-Phe-Arg-Nal 2-Asp)- NH2] (HELM PEPTIDE1{[ac].R.K.N.[dF].R.[O=C([C@H](Cc1ccc2ccccc2c1)N[*:1])[*:2]].D.[am]}$PEPTIDE1,PEPTIDE1,3:R3-8:R3$$$V2.0)			89	82	
